Measurements reported in patent publication US20050064384A1, “Recruitment of mst1 or mst2 protein kinase to induce apoptosis in eukaryotic cells” (priority 2001, published 2005).
“Also recorded” adds a separate entry of the source. Peptide text beside a SMILES is read from it. * marks the point of attachment. Cbz = O=C(OCc1ccccc1)*; CH2F = FC*

Legend:
Assay type in all cases: cell-based
[1] = tested on: HEK293 cells; experiment: Apoptosis assay in HEK293 cells (trypan blue exclusion); details: incubation with zVAD-FMK, data not shown
Procedure: Transient transfections were performed using LIPOFECTAMINE™ transfection reagent (Gibco BRL, Gaithersburg, Md.) according to the manufacturer's instructions. […] Each well was transfected with a total of 0.5 μg DNA and 3.5 μl LIPOFECTAMINE™ transfection reagent.

[2] = tested on: NIH3T3 cells; experiment: Annexin V labeling in NIH 3T3 cells (FACS); details: zVAD-FMK 42 μM added at the time of transfection; cells harvested 24 hours later; NORECAAX + wild type MST1, or myrMST1
Procedure: Annexin V labeling in NIH 3T3 cells. The assay was as described in (van Engeland et al., Cytometry, 24: 131-139 (1996)) with some modifications. NIH 3T3 cells were plated at 3-4×10^5 per well in a 6-well plate the day before transfection. Cells were transfected in duplicate with 6 μg of DNA and 10 μl of LIPOFECTAMINE™ 2000 transfection reagent (GIBCO BRL, Gaithersburg, Md.) in the presence of 10% serum, as recommended by manufacturer, and left for 19-23 hours. In some experiments, Z-Vad-FMK (Calbiochem) was added to 42 μM (final concentration) at the time of transfection. Rat annexinV, purified from liver or recombinant, labeled with Alexa 488 dye was added to the culture media to 1 mg/ml and cells were incubated 5 minutes at 37° C., followed by 25 minutes at room temperature in the dark. Media with floating cells was transferred to 5 ml centrifuge tubes on ice; the plates were washed twice with 1 ml of HBS (20 mM HEPES, pH 7.4, 150 mM NaCl, 2.5 mM CaCl2) and the washes were added to the tubes with media. Floating cells were pelleted, resuspended in 3 ml of HBS and pelleted again. Adherent cells were scraped into 1 ml HBS, pooled with floating cells from the same dish and resuspended by vortexing. […] Cells were analyzed by Coulter EPICS V XL flow cytometer; the percent of annexinV-positive cells was calculated by the cytometer software. […]

[3] = tested on: Jurkat cells; experiment: Jurkat cell survival by flow cytometry (GFP positive live cells); details: incubation with zVAD-FMK, data not shown
Procedure: The Jurkat/T antigen cell line was cultured in complete IMDM medium supplemented with 10% FCS, 2 mM glutamine and gentamycin (50 μg/ml) in a humidified incubator with 5% CO2 in air at 37° C. The cells were kept at a density of 0.5-1×10^6/ml. Aliquots containing 3×10^6 Jurkat cells were electorporated at 250 volts and 960 μF with mixtures of plasmids as indicated in the Figures together with 1 μg of cDNA encoding GFP. Twenty-four hours post transfection, cell survival was analyzed by flow cytometry using a previously optimized program to measure percentage of live cells that are GFP positive present in forward scatter/side scatter gate in each experimental condition (Vermes et al., J. Immunol. Meth., 243: 167-190 (2000)). The vital GFP positive cells were selected on the basis of unchanged scatter signals when compared to untransfected cells and the apoptotic cell population with decreased FS and increased SS was excluded from the analysis. The data was expressed as “percent cells surviving” with vector controls set to 100%.

Structure (SMILES): COC(=O)C[C@H](NC(=O)[C@H](C)NC(=O)[C@@H](NC(=O)OCc1ccccc1)C(C)C)C(=O)CF [zVAD-FMK] (Cbz-Val-Ala-Asp(OMe)-CH2F)
- suppression of killing caused by low doses of NORECAAX with MST1 [1]: suppressed
- suppression of NORECAAX and MST1-induced annexin V binding (staining) [2]: suppresses; also recorded: fully suppressed
- suppression of killing caused by low doses of NORECAAX with MST1 [3]: suppressed
